Laboratory results as given in US20250235418A1, “Butyrate Analogues and Methods of Use for HIF Stabilization and Treatment of Bowel Disease” (THE REGENTS OF THE UNIVERSITY OF COLORADO, A BODY CORPORATE, priority 2022, published 2025).

How the values were obtained:
PHD2181-402 = target: T1, PHD2181-402 (Homo sapiens, UniProt Q9GZT9); experiment: microscale thermophoresis (MST) binding to PHD2181-402
T1 construct: made in house
Description: Measurements were repeated 3 times.
Uncompetitive inhibitors only bind to the enzyme substrate complex, whereas noncompetitive inhibitors can bind to enzyme alone or enzyme substrate complex since the inhibitor has a unique binding site distinct from the substrate binding site. […] Thus, our findings indicate that butyrate functions as a noncompetitive PHD inhibitor with a unique binding site.

HIF regulated targets = experiment: intraperitoneal injection in C57BL/6 mice, HIF regulated targets (EPO, GLUT1); type: in vivo; details: IP, BA 73 mg/kg, MBA 80 mg/kg, 24h
Experimental: Erythropoietin (EPO) is regulated by HIF stabilization. (A) EPO protein in blood serum was assessed by mesoscale assay (n=6-8). qPCR mRNA expression of HIF target mGLUT1 in kidney (B) and colon tissue (C) (n=3-8). Data analyzed by One-way ANOVA with Tukey for post hoc correction and presented as mean±S.E.M of two independent experiments, *p<0.05, **p<0.01, ***p<0.001, ****p<0.0001 […]
At 24 h, mice were sacrificed followed by exsanguination, extraction of right kidney and distal colon for analysis of HIF stabilization and HIF target gene expression. SHBA induces HIF regulated targets in vivo. Erythropoietin (EPO) is regulated by HIF stabilization. (A) EPO protein in blood serum was assessed by mesoscale assay (n=6-8). (B) qPCR mRNA expression of HIF target mGLUT1 in colon tissue (n=3-4). Data are presented as mean±S.E.M of two independent experiments, *p<0.05, **p<0.01.
A typical physiologic response to hypoxia is the increase in red blood cell production. Naturally, HIF is in charge of this response by regulating cell-type specific gene expression that leads to increased levels of the hormone erythropoietin (EPO).[10] […] We lastly explored the in-vivo effects of MBA in mediating induction of genes tightly regulated by HIF. […] After 24h of treatment, they were sacrificed and quickly exsanguinated to measure EPO levels in serum. […] Furthermore, we studied the induction of GLUT1, another classic HIF target responsible for the transport of various monosaccharides. Kidney and colon tissue were analyzed by real-time PCR to compare BA and MBA head-to-head. […] These findings support the ability of MBA to stabilize HIF in-vivo leading to the induction of classic target genes and transcription of a tightly regulated protein EPO.

HIF1α in T84 cells = experiment: HIF1α immunoblot in T84 cells (MBA vs BA); type: cell-based; details: T84 cells
Experimental: (A) Structures of butyrate derivatives investigated in initial screen for HIF stabilization. Immunoblot of HIF1a protein levels in Caco-2 cells (B) and T84 cells (C) exposed to veh (HBSS+), […], or 5 mM butyrate derivatives for 6h. (D) Dose response study of HIF1a accumulation in T84 cells treated with decreasing concentrations of MBA and BA for 6 h.
(A) Immunoblots of HIF1a protein over time after exposure of T84 cells to 5 mM BA and MBA. (B) Mesoscale assay of HIF1a protein over time in caco-2 cells treated with 5 mM MBA compared to veh. (C) HIF1a and HIF target (BNIP3) protein in caco-2 cells exposed to veh (HBSS+), […] or 5 mM MBA. Data are presented as mean+S.E.M, *p<0.05, **p<0.01, ***p<0.001.
Endogenous and non-endogenous butyrate derivatives with specifically chosen functional groups at different positions within the small molecule and assess their effects on HIF stabilization (FIG. 21A). To study a small library of butyrate derivatives we employed an electrochemiluminescence based assay to quantify HIF1α levels using the Meso Scale Discovery (HIF1α MSD assay, http://www.mesoscale.com) technology. Similar to the sandwich enzyme-linked immunosorbent assay (ELISA), this technology captures and detects HIF1α protein using two specific antibodies but utilizes electrochemiluminescence-based signal generation and detection. Using lysates from intestinal epithelial cells (IECs) caco-2 and T84 exposed to a physiological relevant concentration of 5 mM butyrate derivatives for 4h, this assay was employed to determine HIF1α protein concentration. A bona-fide and potent PHD2 inhibitor (IOX4) was used to stabilize HIF1α as a positive control. Various butyrate derivatives increased HIF1α relative concentration in both cell lines compared to low signals detected in untreated lysates. […] We decided to focus on this interesting butyrate derivative for further studies.
To elucidate the effectiveness of MBA to stabilize HIF1α over time and possibly shine light on how quickly it can be metabolized in-vitro, time-course studies where performed between BA and MBA, IOX4 was used as a positive control. […] Employing the HIF1α MSD assay, we screened for various timepoints in caco-2 cell lysates exposed to MBA (5 mM). […] BNIP3 is involved in cell survival and is a known HIF1α target that is induced through chemical stabilization of HIF or hypoxia. BNIP3 promoter comprises a functional hypoxia response element (HRE) and can be activated by HIF1α.[5] Parallel to our HIF stabilization time course studies, we wanted to assess the transcriptional activity of the stabilized protein over time.

[1] = system: HIF-1α in murine enteroids; experiment: HIF stabilization in differentiated murine enteroids; type: cell-based; details: 10 mM butyrate with or without 1 mM MCPA, 4 h

T1 sequence (Q9GZT9 181-402): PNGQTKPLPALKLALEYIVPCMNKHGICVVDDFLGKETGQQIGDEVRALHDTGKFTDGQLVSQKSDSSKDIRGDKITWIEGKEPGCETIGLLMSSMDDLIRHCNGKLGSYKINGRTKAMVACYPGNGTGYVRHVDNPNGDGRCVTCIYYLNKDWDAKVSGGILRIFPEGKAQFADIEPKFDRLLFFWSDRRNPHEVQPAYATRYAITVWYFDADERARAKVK

CCCC(=O)O [Butyrate, Butyric acid]
Kd (PHD2181-402; 25 nM PHD2181-402, without 2-OG, read-out: dissociation constant (KD)): 2 ± 3 mM | binding to PHD2181-402 in the presence of 2-OG by MST (PHD2181-402; with 500 nM 2-OG): no butyrate binding | GLUT1 mRNA in colon tissue (HIF regulated targets): significantly increased in colon tissue | GLUT1 mRNA in kidney (HIF regulated targets): induction of GLUT1 in kidney | HIF1α stabilization over time (immunoblot) (HIF1α in T84 cells; 5 mM BA and MBA, IOX4 positive control): no longer stabilized at 48h | dose response of HIF1α accumulation (HIF1α in T84 cells; decreasing concentrations, 6 h): quickly becomes ineffective | HIF-1α protein expression [1]: increased HIF-1α protein expression | HIF-1α target gene expression [1]: induced expression of HIF-1α target genes
